Data: paper PMC7497641, “Neurotropic activity and safety of methylene-cycloalkylacetate (MCA) derivative 3-(3-allyl-2-methylenecyclohexyl) propanoic acid” (ACS Chemical Neuroscience, 2020)

What was measured:
[1] = target: Adrenergic Receptor β2 (ADRB2) (Homo sapiens, UniProt P07550); experiment: SAFETYscan GPCR cAMP; assay type: cell-based
[2] = target: T1, Muscarinic acetylcholine Receptor M2 (CHRM2) (Homo sapiens, UniProt P08172); experiment: SAFETYscan GPCR cAMP; assay type: cell-based
T1 construct: host or cells: cAMP Hunter cell lines

[3] = target: T2, Dopamine Receptor D2 (DRD2S) (Homo sapiens, UniProt P14416); experiment: SAFETYscan GPCR cAMP; assay type: cell-based
T2 construct: host or cells: cAMP Hunter cell lines

[4] = target: Endothelin Receptor Type A (EDNRA) (Homo sapiens, UniProt P25101); experiment: SAFETYscan GPCR Calcium Flux; assay type: cell-based; conditions: read-out: RC50 (the source's name)
[5] = target: T3, Kv11.1, the alpha subunit of a potassium ion channel (hERG) (Homo sapiens, UniProt Q12809); experiment: cell-based; conditions: Blocker
T3 construct: host or cells: unnamed DiscoverX cell line

[6] = target: T4, Nicotinic acetylcholine Receptor alpha-4 beta-2 (nAChR(a4/b2)) (Homo sapiens, UniProt P17787+P43681); experiment: cell-based; conditions: Ion channel, read-out: RC50 (the source's name)
T4 construct: host or cells: unnamed DiscoverX cell line

[7] = target: A tetrodotoxin-resistant voltage-gated sodium channel (NAVI1.5) (Homo sapiens, UniProt Q14524); experiment: cell-based
[8] = target: T5, Insulin Receptor (tyrosine kinase) (INSR) (Homo sapiens, UniProt P06213); experiment: SAFETYscan KINOMEscan binding assay; conditions: Inhibitor
T5 construct: host or cells: E. coli BL21-derived host (T7 phage) or HEK-293

[9] = target: T6, Rho Associated Coiled-Coil Containing Protein Kinase 1 (serine-threonine kinase) (ROCK1) (Homo sapiens, UniProt Q13464); experiment: SAFETYscan KINOMEscan binding assay; conditions: Inhibitor
T6 construct: host or cells: E. coli BL21-derived host (T7 phage) or HEK-293

Cyclooxygenase 2 (COX 2) = target: T7, Cyclooxygenase 2 (COX 2) (Homo sapiens, UniProt P35354); experiment: biochemical; conditions: Inhibitor, Enzymatic
T7 construct: purchased BPS Bioscience

[10] = target: T8, Dopamine transporter (DAT) (Homo sapiens, UniProt Q01959); experiment: SAFETYscan Transporter assay; assay type: cell-based
T8 construct: host or cells: unnamed DiscoverX cell line

[11] = Single-dose acute tolerance, intravenous; assay type: in vivo, Male C57BL/6 mice; conditions: 250 mg/kg intravenously
Description: This pilot study was conducted according to guidance for industry single dose acute toxicity testing for pharmaceuticals (https://www.fda.gov/regulatory-information/search-fda-guidance-documents/single-dose-acute-toxicity-testing-pharmaceuticals) to obtain acute information on the dose toxicity of HU-MCA-13 in male mice. Male C57BL/6 mice were injected intravenously with 0.2 mL of HU-MCA-13 in a dose of 250 mg/kg. […] The mortality and changes on body weight, clinical signs and gross observation, were monitored up to 30 days after treatment.
Sensory motor/neurological performance
The performance was weekly measured using several routine motor tests, but no neurological losses w ere observed (Table 1). Sensory motor tests were scored individually and according to the neurologic function severity score (NSS). The data from each individual test and the total score calculated from individual tests that make up the mNSS were measured. The following tests were […]
a. Beam balance test -mice were placed on a 2.5 cm wide beam for 60 seconds. A normal response is balance with steady posture for 60 seconds (a score of 0). Deficits are scored if the rat:
1. Grasps the side of the beam (score of 1); 2. Hugs the beam and one limb falls down from the beam (score of 2); 3. Hugs the beam and two limbs fall off the beam (score of 3); 4. Try to balance on the beam, but falls off from 60 seconds (score of 4); 5. Try to balance on the beam but falls off from 60 seconds (score of 5); 6. Falls off with no attempt to balance or hang on the beam in les s than 20 seconds (score of 6). b. Foot fault test- dysfunction of forelimb movement, while walking on elevated metal grids.
The animal was placed on horizontal grids (85 ×26 ×20) cm with a glass enclosure for observation.
With each weight bearing step, the forelimb can fall or slip between the metal support bars, an event recorded as a foot fault. The total number of forelimb steps and the total number of foot faults were counted. The percentage of forelimb foot faults to the total steps that occurred within 2 minutes represent the test results. c. Hind limb placing test- This assay monitors reposition of hind limbs placed down and away from the table edge. The ability to retrieve and place the hind limbs back onto the table was measured. Immediate and complete limb retrieval was scored 0, delayed (>2 seconds) limb retrieval and/or interspersed flailing was scored 1, and no limb retrieval was scored 2; d. Increasing platform angle to slide test- This assay measures the strength and stability of resistance to slide down an inclined platform. It deploys a clean wooden board (60 X 40 cm) positioned horizontally. Mice were placed on the board with head facing up the increasing incline.
The board then swings to increase the degree of inclination the rat experiences until slipping down the board feet first. The degree of the angle at which the rat relinquishes their grip/stance on the board (slips down) represents the test results; […]
e. Forelimb whole body suspension test- This assay measure s grip strength by duration of suspen sion by forepaws. The rat is suspended o n a metal bar (diameter of 5 mm) which it tightly holds onto by its forelimbs. The time (seconds) during which each rat could sustain its body weight while holding onto the bar is measured. The mice drop from the bar onto soft material with no harm. The test was repeated three times and a mean result per rat was used as the score. […]

[12] = read-out: RC50 (the source's name)
[13] = 10 μM, read-out: MCA-13 Max. Responce

Adrenergic Receptor β2 (ADRB2), sequence (P07550 whole entry): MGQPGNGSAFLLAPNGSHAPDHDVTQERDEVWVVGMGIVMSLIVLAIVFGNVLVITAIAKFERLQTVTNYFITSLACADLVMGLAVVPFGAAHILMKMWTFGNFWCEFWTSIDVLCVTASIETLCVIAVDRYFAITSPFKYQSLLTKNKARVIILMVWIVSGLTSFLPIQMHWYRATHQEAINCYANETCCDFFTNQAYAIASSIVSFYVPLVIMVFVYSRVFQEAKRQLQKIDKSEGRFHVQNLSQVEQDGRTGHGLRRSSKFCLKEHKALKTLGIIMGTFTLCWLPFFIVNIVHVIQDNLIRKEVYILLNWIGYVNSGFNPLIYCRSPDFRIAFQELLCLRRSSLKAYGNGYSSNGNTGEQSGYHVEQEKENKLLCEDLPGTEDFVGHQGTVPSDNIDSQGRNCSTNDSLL
T1 sequence (P08172 whole entry): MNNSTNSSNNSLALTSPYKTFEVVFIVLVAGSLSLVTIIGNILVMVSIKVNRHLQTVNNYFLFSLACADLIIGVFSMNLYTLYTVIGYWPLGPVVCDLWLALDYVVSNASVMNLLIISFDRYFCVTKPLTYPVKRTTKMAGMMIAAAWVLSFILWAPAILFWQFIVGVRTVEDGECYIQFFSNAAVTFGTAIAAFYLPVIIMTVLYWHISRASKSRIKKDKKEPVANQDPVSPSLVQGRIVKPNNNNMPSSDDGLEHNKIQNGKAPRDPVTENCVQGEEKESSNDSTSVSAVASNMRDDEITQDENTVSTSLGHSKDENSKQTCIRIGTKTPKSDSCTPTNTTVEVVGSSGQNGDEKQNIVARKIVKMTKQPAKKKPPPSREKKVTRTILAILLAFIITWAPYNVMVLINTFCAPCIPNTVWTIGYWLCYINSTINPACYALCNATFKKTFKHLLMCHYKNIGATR
T6 sequence (Q13464 whole entry): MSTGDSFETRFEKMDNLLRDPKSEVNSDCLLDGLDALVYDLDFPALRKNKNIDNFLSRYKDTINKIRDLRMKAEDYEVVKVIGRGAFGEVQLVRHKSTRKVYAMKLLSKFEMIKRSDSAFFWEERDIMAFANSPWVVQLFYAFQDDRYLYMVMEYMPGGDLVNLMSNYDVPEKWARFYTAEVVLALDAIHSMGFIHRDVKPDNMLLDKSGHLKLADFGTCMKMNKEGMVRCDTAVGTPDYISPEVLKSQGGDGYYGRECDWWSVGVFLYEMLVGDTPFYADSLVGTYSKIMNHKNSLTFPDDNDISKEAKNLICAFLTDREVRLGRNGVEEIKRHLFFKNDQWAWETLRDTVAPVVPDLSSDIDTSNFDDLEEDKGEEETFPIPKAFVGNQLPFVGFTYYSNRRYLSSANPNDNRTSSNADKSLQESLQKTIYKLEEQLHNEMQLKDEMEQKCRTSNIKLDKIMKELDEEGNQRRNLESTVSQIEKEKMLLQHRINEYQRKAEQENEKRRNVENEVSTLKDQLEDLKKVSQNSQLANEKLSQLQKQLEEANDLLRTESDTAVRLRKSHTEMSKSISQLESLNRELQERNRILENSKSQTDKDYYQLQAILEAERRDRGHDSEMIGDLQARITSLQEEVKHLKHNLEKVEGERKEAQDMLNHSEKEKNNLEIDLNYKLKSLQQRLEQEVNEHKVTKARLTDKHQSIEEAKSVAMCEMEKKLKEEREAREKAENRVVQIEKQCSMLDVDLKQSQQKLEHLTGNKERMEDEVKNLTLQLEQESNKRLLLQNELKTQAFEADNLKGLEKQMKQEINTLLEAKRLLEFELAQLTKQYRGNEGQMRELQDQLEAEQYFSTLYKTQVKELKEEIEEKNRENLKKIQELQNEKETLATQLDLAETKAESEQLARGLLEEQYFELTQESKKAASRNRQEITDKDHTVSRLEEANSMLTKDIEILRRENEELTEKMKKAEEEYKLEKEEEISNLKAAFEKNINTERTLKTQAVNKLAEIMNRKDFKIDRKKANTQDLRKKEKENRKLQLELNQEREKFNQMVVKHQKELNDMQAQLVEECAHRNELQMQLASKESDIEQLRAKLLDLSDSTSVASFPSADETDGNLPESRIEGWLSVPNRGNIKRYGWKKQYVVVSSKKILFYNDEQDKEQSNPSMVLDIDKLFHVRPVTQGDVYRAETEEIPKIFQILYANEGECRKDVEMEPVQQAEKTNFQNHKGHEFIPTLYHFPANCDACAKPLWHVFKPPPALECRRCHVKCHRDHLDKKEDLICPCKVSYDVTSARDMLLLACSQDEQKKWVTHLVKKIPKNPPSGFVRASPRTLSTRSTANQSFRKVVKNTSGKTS
T7 sequence (P35354 18-604): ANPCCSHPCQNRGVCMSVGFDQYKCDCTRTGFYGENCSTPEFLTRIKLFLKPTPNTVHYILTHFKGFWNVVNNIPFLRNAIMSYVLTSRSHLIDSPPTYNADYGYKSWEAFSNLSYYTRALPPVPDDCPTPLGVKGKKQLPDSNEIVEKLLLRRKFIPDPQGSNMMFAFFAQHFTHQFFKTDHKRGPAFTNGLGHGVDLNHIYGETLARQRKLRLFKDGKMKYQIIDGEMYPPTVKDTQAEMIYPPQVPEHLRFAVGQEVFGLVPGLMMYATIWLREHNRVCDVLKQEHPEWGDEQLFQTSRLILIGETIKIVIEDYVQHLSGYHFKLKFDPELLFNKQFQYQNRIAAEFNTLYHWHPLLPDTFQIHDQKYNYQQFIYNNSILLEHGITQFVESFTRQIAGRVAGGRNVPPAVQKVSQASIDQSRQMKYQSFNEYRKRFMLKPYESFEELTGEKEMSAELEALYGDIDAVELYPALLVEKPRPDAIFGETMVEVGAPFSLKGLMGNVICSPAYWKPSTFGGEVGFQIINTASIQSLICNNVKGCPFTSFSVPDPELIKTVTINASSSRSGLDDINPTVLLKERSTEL
T5 sequence (P06213 28-1382): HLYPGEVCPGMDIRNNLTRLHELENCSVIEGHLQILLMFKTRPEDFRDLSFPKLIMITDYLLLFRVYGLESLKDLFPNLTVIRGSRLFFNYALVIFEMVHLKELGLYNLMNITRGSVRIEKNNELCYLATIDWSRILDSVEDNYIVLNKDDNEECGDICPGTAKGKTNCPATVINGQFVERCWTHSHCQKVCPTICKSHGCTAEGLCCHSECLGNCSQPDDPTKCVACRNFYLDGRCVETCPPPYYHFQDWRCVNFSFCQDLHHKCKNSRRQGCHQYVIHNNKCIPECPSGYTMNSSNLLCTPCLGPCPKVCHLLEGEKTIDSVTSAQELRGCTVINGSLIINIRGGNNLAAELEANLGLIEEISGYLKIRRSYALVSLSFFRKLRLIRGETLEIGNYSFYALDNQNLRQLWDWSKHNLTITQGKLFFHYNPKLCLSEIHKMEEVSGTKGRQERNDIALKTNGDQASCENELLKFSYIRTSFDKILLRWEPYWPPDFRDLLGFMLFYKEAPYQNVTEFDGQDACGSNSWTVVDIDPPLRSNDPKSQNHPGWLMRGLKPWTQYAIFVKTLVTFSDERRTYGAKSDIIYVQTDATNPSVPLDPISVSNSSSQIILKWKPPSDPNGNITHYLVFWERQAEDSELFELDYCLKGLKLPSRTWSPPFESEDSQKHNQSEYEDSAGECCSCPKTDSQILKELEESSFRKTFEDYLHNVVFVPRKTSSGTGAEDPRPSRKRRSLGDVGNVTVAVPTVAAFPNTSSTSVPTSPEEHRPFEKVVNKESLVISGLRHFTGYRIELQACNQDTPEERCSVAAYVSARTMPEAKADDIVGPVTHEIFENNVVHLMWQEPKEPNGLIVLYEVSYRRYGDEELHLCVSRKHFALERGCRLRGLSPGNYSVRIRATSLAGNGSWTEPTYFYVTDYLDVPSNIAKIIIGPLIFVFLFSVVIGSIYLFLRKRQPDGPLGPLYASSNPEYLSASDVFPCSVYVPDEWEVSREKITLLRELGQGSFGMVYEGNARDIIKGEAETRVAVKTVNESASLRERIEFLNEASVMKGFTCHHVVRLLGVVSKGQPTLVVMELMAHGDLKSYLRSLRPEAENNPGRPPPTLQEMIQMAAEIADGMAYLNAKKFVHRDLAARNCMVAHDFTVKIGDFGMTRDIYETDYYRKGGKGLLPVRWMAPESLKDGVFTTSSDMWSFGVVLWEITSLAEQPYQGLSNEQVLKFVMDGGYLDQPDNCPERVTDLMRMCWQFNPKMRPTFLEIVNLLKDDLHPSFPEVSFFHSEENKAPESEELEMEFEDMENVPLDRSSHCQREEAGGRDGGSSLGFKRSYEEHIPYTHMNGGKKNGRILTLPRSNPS
T2 sequence (P14416 1-414 isoform P14416-2): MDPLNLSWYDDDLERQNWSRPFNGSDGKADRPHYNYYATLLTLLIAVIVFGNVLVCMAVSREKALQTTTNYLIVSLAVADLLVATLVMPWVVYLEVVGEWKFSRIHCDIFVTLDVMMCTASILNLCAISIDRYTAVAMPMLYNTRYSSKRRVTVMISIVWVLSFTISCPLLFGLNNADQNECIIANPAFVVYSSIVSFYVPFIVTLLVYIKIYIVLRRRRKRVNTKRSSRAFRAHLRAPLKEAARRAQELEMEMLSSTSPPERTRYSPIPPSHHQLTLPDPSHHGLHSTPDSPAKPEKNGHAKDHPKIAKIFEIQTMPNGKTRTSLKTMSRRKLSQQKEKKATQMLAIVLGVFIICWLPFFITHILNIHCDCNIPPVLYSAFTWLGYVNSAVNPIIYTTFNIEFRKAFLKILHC
Endothelin Receptor Type A (EDNRA), sequence (P25101 21-427): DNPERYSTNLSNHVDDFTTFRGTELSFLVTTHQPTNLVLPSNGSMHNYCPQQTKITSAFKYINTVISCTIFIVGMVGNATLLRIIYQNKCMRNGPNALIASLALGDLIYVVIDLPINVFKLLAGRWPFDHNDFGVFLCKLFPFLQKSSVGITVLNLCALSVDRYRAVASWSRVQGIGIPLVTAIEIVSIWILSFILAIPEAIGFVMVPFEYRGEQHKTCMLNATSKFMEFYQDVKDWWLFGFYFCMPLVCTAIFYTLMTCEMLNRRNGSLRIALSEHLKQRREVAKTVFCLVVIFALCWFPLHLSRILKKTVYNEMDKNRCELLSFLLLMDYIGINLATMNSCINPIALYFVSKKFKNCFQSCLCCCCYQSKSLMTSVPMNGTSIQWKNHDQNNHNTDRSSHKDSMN

C=CCC1CCCC(CCC(=O)O)C1=C (centres unmarked) [HU-MCA-13, 3-(3-allyl-2-methylenecyclohexyl)propanoic acid]
EC50 [1]: > 10 µM
IC50 [1]: > 10 µM
EC50 [2]: > 10 µM
IC50 [2]: > 10 µM
EC50 [3]: > 10 µM
IC50 [3]: > 10 µM
EC50 ([4]; Agonist): > 10 µM
IC50 ([4]; Antagonist): > 10 µM
MCA-13 Max. Responce ([5]; 10 μM): 0%
IC50 [5, 12]: > 10 µM
IC50 ([6]; Blocker): > 10 µM
EC50 ([6]; Opener): > 10 µM
IC50 [7]: > 10 µM
inhibition at 10 µM [8, 13]: 3.22%
IC50 [8, 12]: > 10 µM
inhibition at 10 µM [9, 13]: 21.6%
IC50 [9, 12]: > 10 µM
inhibition at 10 µM (Cyclooxygenase 2 (COX 2); [13]): 7.99%
IC50 (Cyclooxygenase 2 (COX 2); [12]): > 10 µM
IC50 [10]: > 10 µM
inhibition at 10 µM ([10]; 10 μM, Blocker, Transporter, read-out: MCA-13 Max. Responce): 0%
autonomic symptoms (salivation, urinary delivery, pupillary constriction, hair contraction) versus DMSO [11]: no differences were observed
mortality ([11]; single dose, monitored up to 30 days): could not find any mortality
sensory-motor performance, neurologic function severity score (NSS) ([11]; first week after injection): no neurological losses were observed
changes on body weight versus 1% DMSO treated group ([11]; up to 30 days): No significant changes
body weight at end ([11]; up to 30 days, started with 21 g): 27 g
